Measured values as given in patent US5006534A, “Substituted ethers, thioethers and amines for use as lipoxygenase inhibitors” (Bayer Aktiengesellschaft, priority 1985, dated 1991).

Legend:
[1] = tested on: lipoxygenase; test: LTB4 release on polymorphonuclear rat leucocytes (PMN) by RP-HPLC after Ca ionophor, as a measure of lipoxygenase inhibition; type: cell-based
Procedure: The release of leukotriene B4 (LTB4) was determined on polymorphonuclear rat leucocytes (PMN) by means of reverse phase high performance liquid chromatography, after addition of substances and Ca ionophor, in accordance with the method of Borgeat, P. et al., Proc. Nat. Acad. Sci., 76, 2148-2152 (1979) as a measure of the lipoxygenase inhibition.

[2] = tested on: mouse ear inflammation; test: mouse ear inflammation model; type: in vivo

| LO inhibition IC50 values [1] | Structure (SMILES) | Inhibition of inflammation at 2 mg/ear [2] |
| --- | --- | --- |
| 0.14 µg/mL | CCCCCC(OC(C)=O)c1cccc(COc2cccc3cccnc23)c1 (centres unmarked) [Example 38, 1-[3-(Quinolin-8-yloxymethyl)phenyl]hexyl acetate] | 75.0% |
| 0.26 µg/mL | CCCCCCC(OC(C)=O)c1cccc(COc2cccc3cccnc23)c1 (centres unmarked) [Example 39, 1-[3-(Quinolin-8-yloxymethyl)phenyl]heptyl acetate] | 72.0% |
| 0.083 µg/mL | CCCCC(O)c1cccc(COc2cccc3cccnc23)c1 (centres unmarked) [Example 55, 1-[3-(Quinolin-8-yloxymethyl)phenyl]pentanol] | 70.0% |
| 0.23 µg/mL | CCCCCCC(O)c1cccc(COc2cccc3cccnc23)c1 (centres unmarked) [Example 57, 1-[3-(Quinolin-8-yloxymethyl)phenyl]heptanol] | 86.1% |
